Key:
[1] = tested on: psoriasis caused by imiquimod; assay: Epithelial thickness of back skin by H&E staining in imiquimod psoriasis animal model; type: in vivo, Balb/c mice; settings: after treatment for a week, skin application, compared to the IMQ group
Text: (§1) 6-week-old male Balb/c mice (Kangwon Life Science, Korea) were purchased and acclimated for a week, and psoriasis was induced using 5% imiquimod (Donga ST, Korea). FIG. 1 is a schematic experimental scheme of an animal model. Anti-psoriatic efficacy was investigated using a total of 20 animal models including 5 animals per experimental group.
(§2) In order to determine the effect of the extract of Sphallerocarpus gracilis on psoriasis caused by imiquimod, the experimental animals of Section 2-1 were used. The following four experimental groups were constructed and five animals were randomly assigned to each group:
Normal control without any treatment (Non-treatment control, NTC);
Disease group with psoriasis induced using imiquimod by the method of Section 2-1 (IMQ);
Group to the skin of which dexamethasone was applied every day after induction of psoriasis (Positive control, DEX); and
Group to the skin of which the extract of Sphallerocarpus gracilis of Example 1 was applied (Experimental group, M215) […]
After treatment for a week, the back skin tissue was removed from each animal, and then a paraffin block was prepared. The paraffin block was cut to 5 μm to prepare a slide sample, and then the change in the thickness of the skin tissue was measured through H&E staining.

[2] = tested on: filaggrin, loricrin, keratin 1 and keratin 14; assay: Immunofluorescence of biomarkers for epithelial tissue damage in back skin of psoriasis animal model; type: in vivo, Balb/c mice; settings: after treatment for a week, IMQ group decreased compared to non-treatment group
Text: as §1, §2
The experiment was conducted by inducing psoriasis with IMQ cream and then performing daily application in the amount shown in FIG. 2 to the experimental group and the DEX group. FIG. 3 is an image showing the treatment group for 7 days compared to the psoriasis-induced model as the animal experimental model.
After treatment for a week, back skin tissue was removed from each animal and a paraffin block was then prepared. A paraffin block was cut to 5 μm to prepare a slide sample, and then the change in biomarkers for epithelial tissue damage due to psoriasis was measured through immunofluorescence.

## C[C@@H]1C[C@H]2[C@@H]3CCC4=CC(=O)C=C[C@]4(C)[C@@]3(F)[C@@H](O)C[C@]2(C)[C@@]1(O)C(=O)CO [DEX, dexamethasone]
[1]
  thickness of the epithelial layer: decreased thickness
[2]
  expression level of filaggrin: increased
  expression level of keratin 1: increased
  expression level of keratin 14: increased
  expression level of loricrin: increased
